Laboratory results from patent US7741493B2, “Heterocyclic compounds as P2X7 ion channel blockers” (Aventis Pharmaceuticals Inc., priority 2003, dated 2010).
Where a name gives a salt, the structure may show the parent alone. Read-outs that look alike come from different tables or passages of the source.

Molecular target: T1, P2X7 (Homo sapiens, UniProt Q99572)
T1 sequence (Q99572 1-595): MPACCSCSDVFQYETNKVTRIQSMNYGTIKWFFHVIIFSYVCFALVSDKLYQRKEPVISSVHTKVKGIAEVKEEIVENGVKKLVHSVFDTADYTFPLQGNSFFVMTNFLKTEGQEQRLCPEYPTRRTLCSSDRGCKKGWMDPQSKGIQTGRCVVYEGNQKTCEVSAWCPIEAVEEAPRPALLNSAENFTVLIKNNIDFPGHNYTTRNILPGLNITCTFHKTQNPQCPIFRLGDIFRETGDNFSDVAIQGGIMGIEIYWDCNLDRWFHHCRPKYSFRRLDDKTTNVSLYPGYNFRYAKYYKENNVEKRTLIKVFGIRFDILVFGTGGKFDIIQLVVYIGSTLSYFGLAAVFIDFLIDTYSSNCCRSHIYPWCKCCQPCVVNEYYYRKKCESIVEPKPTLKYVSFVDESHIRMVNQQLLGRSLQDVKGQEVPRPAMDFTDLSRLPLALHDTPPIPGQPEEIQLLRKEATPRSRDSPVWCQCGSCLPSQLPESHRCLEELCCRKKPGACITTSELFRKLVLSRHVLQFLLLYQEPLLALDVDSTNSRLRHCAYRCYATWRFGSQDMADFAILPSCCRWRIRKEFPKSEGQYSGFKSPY
Experiment: YO-PRO-1 dye uptake assay in U373 cells stably expressing P2X7
Assay type: cell-based
Design: The complete open reading frame of human P2X7 was amplified from Incyte clone 148057; expressed in transfected cells
Settings: dye uptake through P2X7, U373 cells, 300 μM BzATP, 5 μM YO-PRO-1, test compounds 30 nM to 3 μM
Procedure: Following a 24-hr exposure to DNA, cells were trypsinized and re-seeded at low density in the presence of […] G418. After incubation for 2 weeks, isolated clones were selected with cloning cylinders and replated in […] G418. Cell clones were then expanded. Clones were screened for P2X7 by applying ATP and recording the resultant current using patch clamp electrophysiology.
U373 cells stably expressing P2X7 were used to screen drugs via a dye uptake assay. Cells were plated overnight on collagen coated 96-well plates at a density of 35,000 cells per well. The following day, culture media was replaced with Mg^++ and Ca^++-free Hank's balanced salt solution and various concentrations of test compounds ranging from 30 nM to 3 μM. Cells were then allowed to incubate with test compounds at 37° C. for 20 minutes. Following this incubation period YO-PRO-1 dye (Molecular Probes, Eugene, Oreg., final concentration 5 μM) and 2′-& 3′-O-(4-Benzolybenzoyl)-Adenosine 5′-triphosphate (Sigma Chemical, St Louis, Mo., final concentration 300 μM) were added to the cells sequentially. Cells were then incubated at 37° C. for 1.5 hours. […] Fluorescence in the presence of test substances was compared to that in the absence of test substances (control).

IC50 (read-out: IC50) [nM] | SMILES | IC50 (IC50 (nM)) [nM]
48 | Clc1ccccc1CCC1=N[C@@H](c2ccccc2)[C@@H](c2ccccc2)N1 [2-[2-(2-Chlorophenyl)ethyl]-cis-4,5-diphenyl-4,5-dihydro-1H-imidazole trifluoroacetate] | –
397 | CC(OCC1=N[C@@](C)(c2ccccc2)[C@@H](c2ccccc2)N1)C1CC1 (relative stereo) [2-[(1-Cyclopropyl-1-ethoxy)methyl]-cis-4,5-diphenyl-4-methyl-4,5-dihydro-1H-imidazole trifluoroacetate] | –
356 | CC(Oc1ccccc1)C1=N[C@@](C)(c2ccccc2)[C@@H](c2ccccc2)N1 (relative stereo) [2-(1-Phenoxyethyl)-cis-4,5-diphenyl-4-methyl-4,5-dihydro-1H-imidazole trifluoroacetate] | –
218 | Fc1ccc(CCC2=N[C@@H](c3ccccc3)[C@@H](c3ccccc3)N2)cc1 [2-[2-(4-Fluorophenyl)ethyl]-cis-4,5-diphenyl-4,5-dihydro-1H-imidazole trifluoroacetate] | –
525 | C[C@@]1(c2ccccc2)N=C(CSCc2ccccc2)N[C@@H]1c1ccccc1 (relative stereo) [cis-4,5-diphenyl-4-methyl-2-[(benzylsulfanyl)methyl]-4,5-dihydro-1H-imidazole] | –
321 | Brc1ccccc1CC1=N[C@@H](c2ccccc2)[C@@H](c2ccccc2)N1 [cis-4,5-diphenyl-2-(2-bromobenzyl)-4,5-dihydro-1H-imidazole] | –
630 | Clc1ccccc1CSC1=N[C@@H](c2ccccc2)[C@@H](c2ccccc2)N1 [cis-4,5-diphenyl-2-(2-chlorobenzyl)thio-4,5-dihydro-1H-imidazole] | –
334 | c1ccc([C@H]2NC(C3(c4ccccc4)CC3)=N[C@H]2c2ccccc2)cc1 [trifluoroacetate] | –
22 | C[C@@]1(c2ccccc2)N=C(CCc2ccccc2)N[C@@H]1c1ccccc1 (relative stereo) [cis-4,5-diphenyl-4-methyl-2-(2-phenylethyl)-4,5-dihydro-1H-imidazole] | –
320 | c1ccc(C(CC2=N[C@@H](c3ccccc3)[C@@H](c3ccccc3)N2)c2ccccc2)cc1 [2-[2,2-diphenylethyl]-cis-4,5-diphenyl-4,5-dihydro-1H-imidazole trifluoroacetate] | –
987 | COc1cccc(CSC2=N[C@@H](c3ccccc3)[C@@H](c3ccccc3)N2)c1 [2-[(3-Methoxybenzyl)thio]-cis-4,5-diphenyl-4,5-dihydro-1H-imidazole hydrochloride] | –
720 | c1ccc([C@H]2NC(CCc3ccccn3)=N[C@H]2c2ccccc2)cc1 [cis-4,5-diphenyl-2-[2-(2-pyridyl)ethyl)-4,5-dihydro-1H-imidazole] | –
312 | Fc1ccc(CNC2=N[C@@H](c3ccccc3F)[C@@H](c3ccccc3F)N2)cc1F [[cis-4,5-bis-(2-Fluorophenyl)-4,5-dihydro-1H-imidazol-2-yl]-(3,4-difluorobenzyl)-amine hydrochloride] | –
403 | FC(F)(F)c1ccc(CC2=N[C@@H](c3ccccc3)[C@@H](c3ccccc3)N2)cc1 [2-(4-Trifluoromethylbenzyl)-cis-4,5-diphenyl-4,5-dihydro-1H-imidazole trifluoroacetate] | –
224 | Fc1cccc(OCC2=N[C@@H](c3ccccc3)[C@@H](c3ccccc3)N2)c1 [2-[(3-Fluorophenoxy)methyl]-cis-4,5-diphenyl-4,5-dihydro-1H-imidazole trifluoroacetate] | –
157 | Cc1cccc([C@H]2NC(NCc3ccccc3)=N[C@H]2c2cccc(C)c2)c1 [[cis-4,5-bis-(3-Methylphenyl)-4,5-dihydro-1H-imidazol-2-yl]-benzylamine hydrochloride] | –
318 | Fc1ccc(CNC2=N[C@@H](c3cccc(Cl)c3)[C@@H](c3cccc(Cl)c3)N2)cc1 [[cis-4,5-bis-(3-Chlorophenyl)-4,5-dihydro-1H-imidazol-2-yl]-(4-fluorobenzyl)amine hydrochloride] | –
134 | Cc1ccc([C@H]2NC(NCc3cccc(F)c3)=N[C@H]2c2ccc(C)cc2)cc1 [[cis-4,5-bis-(4-Methylphenyl)-4,5-dihydro-1H-imidazol-2-yl]-(3-fluorobenzyl)amine hydrochloride] | –

IC50 (read-out: IC50) [nM] | SMILES | IC50 (IC50 (nM)) [nM]
433 | Clc1cccc([C@H]2NC(NCc3ccccc3)=N[C@H]2c2cccc(Cl)c2)c1 [[cis-4,5-bis-(3-Chlorophenyl)-4,5-dihydro-1H-imidazol-2-yl]-benzylamine hydrochloride] | –
32 | C[C@@]1(c2cccc(F)c2)N=C(Cc2ccc(F)cc2)N[C@@H]1c1cccc(F)c1 (relative stereo) [2-(4-Fluorobenzyl)-cis-4,5-bis-(3-fluorophenyl)-4-methyl-4,5-dihydro-1H-imidazole trifluoroacetate] | –
379 | Cc1cccc(CNC2=N[C@@H](c3ccccc3F)[C@@H](c3ccccc3F)N2)c1 [[cis-4,5-bis-(2-Fluorophenyl)-4,5-dihydro-1H-imidazol-2-yl]-(3-methylbenzyl)amine hydrochloride] | –
113 | c1ccc(CCNC2=N[C@@H](c3ccccc3)[C@@H](c3ccccc3)N2)cc1 [cis-4,5-diphenyl-2-[(2-phenyl)ethyl]amino-4,5-dihydro-1H-imidazole] | –
198 | c1ccc(SCC2=N[C@@H](c3ccccc3)[C@@H](c3ccccc3)N2)cc1 [2-[(Phenylsulfanyl)methyl]-cis-4,5-diphenyl-4,5-dihydro-1H-imidazole trifluoroacetate] | –
96 | Fc1ccc(CNC2=N[C@@H](c3ccccc3)[C@@H](c3ccccc3)N2)cc1 [(cis-4,5-Diphenyl-4,5-dihydro-1H-imidazol-2-yl)-(4-fluorobenzyl)amine hydrochloride] | –
139 | C[C@@]1(c2ccc(F)cc2)N=C(NCc2ccc(F)cc2)N[C@@H]1c1ccc(F)cc1 | –
828 | Fc1ccc(CSC2=N[C@@H](c3ccccc3)[C@@H](c3ccccc3)N2)c(Cl)c1 [2-[(2-Chloro-4-fluorobenzyl)thio]-cis-4,5-diphenyl-4,5-dihydro-1H-imidazole hydrochloride] | –
570 | CC(Cc1ccccc1)C1=N[C@@H](c2ccccc2)[C@@H](c2ccccc2)N1 (relative stereo) [2-[1-Methyl-2-phenylethyl]-cis-4,5-diphenyl-4,5-dihydro-1H-imidazole trifluoroacetate] | –
386 | COc1cccc(CNC2=N[C@@H](c3ccccc3)[C@@H](c3ccccc3)N2)c1 [cis-4,5-diphenyl-2-(3-methoxybenzyl)amino-4,5-dihydro-1H-imidazole] | –
194 | C[C@@]1(c2ccccc2)N=C(COCC2CCCC2)N[C@@H]1c1ccccc1 (relative stereo) [2-[(Cyclopentylmethoxy)methyl]-cis-4,5-diphenyl-4-methyl-4,5-dihydro-1H-imidazole hydrochloride] | –
140 | Fc1cccc([C@H]2NC(CCc3ccccc3Cl)=N[C@H]2c2cccc(F)c2)c1 [2-[2-(2-Chlorophenyl)ethyl]-cis-4,5-bis-(3-fluorophenyl)-4,5-dihydro-1H-imidazole] | –
142 | Fc1c(Cl)cccc1CC1=N[C@@H](c2ccccc2)[C@@H](c2ccccc2)N1 [trifluoroacetate] | –
135 | c1ccc(CNC2=N[C@@H](c3ccccc3)[C@@H](c3ccccc3)N2)cc1 [cis-4,5-diphenyl-2-benzylamino-4,5-dihydro-1H-imidazole] | –
307 | Clc1ccc(CNC2=N[C@@H](c3ccccc3)[C@@H](c3ccccc3)N2)cc1Cl [cis-4,5-diphenyl-2-(3,4-dichlorobenzyl)amino-4,5-dihydro-1H-imidazole] | –
401 | Fc1ccc(OCC2=N[C@@H](c3ccccc3)[C@@H](c3ccccc3)N2)cc1 [2-[(4-Fluorophenoxy)methyl]-cis-4,5-diphenyl-4,5-dihydro-1H-imidazole trifluoroacetate] | –
647 | Ic1ccccc1CSC1=N[C@@H](c2ccccc2)[C@@H](c2ccccc2)N1 [cis-4,5-diphenyl-2-(2-iodobenzyl)thio-4,5-dihydro-1H-imidazole] | –

SMILES | IC50 (read-out: IC50) [nM] | IC50 (IC50 (nM)) [nM]
Fc1cccc(CC2=N[C@H](c3ccccc3)[C@H](c3ccccc3)N2)c1 [cis-4,5-diphenyl-2-(3-fluorobenzyl)-4,5-dihydro-1H-imidazole] | 84 | 80
